The data set can be described thus: log P determination by HPLC (EEC Directive 79/831 Annex V.A8, gradient method). It counts as physicochemical.

`Cc1csc2nc(-c3ccccc3Cl)c(/C=C/C(=O)NCC(C)(C)C)n12` [Example 0885]: the “Physical data: logP” value came out at 2.67.

Consider `O=C(/C=C/c1c(-c2ccc(F)cc2)nc2sc(C(F)(F)F)nn12)NC1CC1` [Example 0304], for which the “Physical data: log P” value turned out to be 2.95. For `CC(C)NC(=O)/C=C/c1c(-c2ccc(Cl)cc2)nc2sc(C(F)(F)F)nn12` [Example 0007], the “Physical data (logP)” value was 3.61. Consider `Cc1ccccc1-c1nc2sc(C(F)(F)F)nn2c1/C=C/C(=O)NC(C)(C)C` [Example 0231], for which the “Physical data: log P” value turned out to be 3.85. Turning to `CC(C)C(NC(=O)C=Cc1c(-c2cccnc2Cl)nc2sc(C(F)(F)F)nn12)C(F)(F)F` (stereo not shown) [Example 0949], the “Physical data: logP” value came out at 3.48.

As for `CCN(CC)C(=O)/C=C/c1c(-c2ccccc2Cl)nc2sc(C(F)(F)F)nn12` [Example 0221], the “Physical data: log P” value amounted to 3.61.

Take `C[C@@H](CS(C)(=O)=O)NC(=O)/C=C/c1c(-c2ccc(Cl)cc2Cl)nc2sc(C(F)(F)F)nn12` [Example 0003, (2E)-3-[6-(2,4-Dichlorophenyl)-2-(trifluoromethyl)imidazo[2,1-b][1,3,4]thiadiazol-5-yl]-N-[(1S)-1-methyl-2-(methylsulphonyl)ethyl]acrylamide]: the chromatographic logP (HPLC gradient method, acetonitrile/0.1% strength aqueous phosphoric acid or formic acid, preparation examples, read-out: log P) worked out at 3.03. With `O=C(/C=C/c1c(-c2ccccc2Cl)nc2sc(C(F)(F)F)nn12)NC1CCCC1` [Example 0154], the “Physical data (logP)” value worked out at 3.55. With `CCCC(C)NC(=O)/C=C/c1c(-c2cccc(C(F)(F)F)c2)nc2sc(C(F)(F)F)nn12` (stereo not shown) [Example 0381], the “Physical data: log P” value is recorded as 4.56. Turning to `COCc1nn2c(/C=C/C(=O)NCC(F)(F)C(F)(F)C(F)(F)F)c(-c3ccccc3Cl)nc2s1` [Example 0837], the “Physical data: logP” value is given as 3.59. On the same count and under the same terms, the figure for `CC(C)(C)c1nn2c(/C=C/C(=O)NC3CCCCC3)c(-c3ccccc3Cl)nc2s1` [Example 0810] is 3.79; for `COCc1nn2c(/C=C/C(=O)NCC(C)(C)C)c(-c3ccccc3Cl)nc2s1` [Example 0819] it is 3.05.

For the compound `CCC(C)NC(=O)/C=C/c1c(-c2ccccc2Cl)nc2sc(C(C)(C)C)nn12` (stereo not shown) [Example 0803], the “Physical data: logP” value turned out to be 3.67. `CC(C)(C)NC(=O)/C=C/c1c(-c2ccccc2F)nc2sc(C(F)(F)F)nn12` [Example 0444]: the “Physical data: log P” value turned out to be 3.55. On the same count and under the same terms, the figure for `Cc1ccccc1-c1nc2sc(C(F)(F)F)nn2c1/C=C/C(=O)NC(C)c1ccccc1` (stereo not shown) [Example 0260] is 3.94.

As to `CC(NC(=O)/C=C/c1c(-c2nccs2)nc2sc(C(F)(F)C(F)(F)F)nn12)C(F)(F)F` (racemic) [Example 0987], the “Physical data: logP” value worked out at 3.81. On to `CC(COc1ccccc1)NC(=O)/C=C/c1c(-c2ccc(Cl)cc2Cl)nc2sc(C(F)(F)F)nn12` (stereo not shown) [Example 0546], for which the “Physical data: log P” value is recorded as 4.56. Consider `CN(C)C(=O)/C=C/c1c(-c2ccc(Cl)cc2)nc2sc(C(F)(F)F)nn12` [Example 0065], for which the “Physical data (logP)” value amounted to 3.42.

`O=C(/C=C/c1c(-c2ccccc2Cl)nc2sc(-c3ccc(C(F)(F)F)cc3)nn12)NC1CCCCC1` [Example 0854]: the “Physical data: logP” value is recorded as 4.76.

Consider `CC(NC(=O)/C=C/c1c(-c2cccnc2Cl)nc2sc(C(F)(F)F)nn12)C(F)(F)F` (racemic) [Example 0948], for which the “Physical data: logP” value worked out at 2.76. In the case of `O=C(O)/C=C/c1c(-c2ccc(-c3ccc(Cl)cc3)cc2)nc2sc(C(F)(F)F)nn12` [VA121], the “Physical data (logP)” value is 4.26. Regarding `O=C(O)/C=C/c1c(-c2ccc(F)cc2Cl)nc2sc(C(F)(F)C(F)(F)C(F)(F)F)nn12` [VA135], the “Physical data (logP)” value came to 3.75. For the compound `O=C(/C=C/c1c(-c2ccc(Cl)cc2)nc2sc(C(F)(F)F)nn12)N1CCCCC1` [Example 0071], the “Physical data (logP)” value came out at 4.31. For `O=C(/C=C/c1c(-c2ccccc2Cl)nc2sc(-c3ccc(C(F)(F)F)cc3)nn12)Nc1ccc(OC(F)(F)F)cc1` [Example 0856], the “Physical data: logP” value turned out to be 5.47. Same read-out and setting: the figure for `CCC(CC)NC(=O)/C=C/c1c(-c2ccc(OC)c(OC)c2)nc2sc(C(F)(F)F)nn12` [Example 0710] is 3.37. Turning to `O=C(/C=C/c1c(-c2cccc(Cl)c2)nc2sc(C(F)(F)F)nn12)NC1CCCC1` [Example 0084], the “Physical data (logP)” value stood at 4.13.

For the compound `O=Cc1c(-c2ccccc2Cl)nc2sc(C(F)(F)C(F)(F)F)nn12` [IVA111], the “Physical data (logP)” value was found to be 3.47.

As to `CC(C)(C)c1nn2c(/C=C/C(=O)NC3CCCC3)c(-c3ccccc3Cl)nc2s1` [Example 0809], the “Physical data: logP” value came to 4.12. Turning to `CCN(CC)C(=O)/C=C/c1c(-c2ccc(OC)c(OC)c2)nc2sc(C(F)(F)F)nn12` [Example 0716], the “Physical data: logP” value turned out to be 3.53. As to `O=C(/C=C/c1c(-c2ccc(Cl)cc2)nc2sc(C(F)(F)F)nn12)NC1CCCCC1` [Example 0014], the “Physical data (logP)” value is reported as 4.37.

As to `Cc1cn2c(/C=C/C(=O)NC3CCCCC3)c(-c3ccccc3Cl)nc2s1` [Example 0876], the “Physical data: logP” value is 3.05.

For the compound `O=C(/C=C/c1c(-c2ccccc2Cl)nc2sc(C(F)(F)F)nn12)NCc1ccc(F)cc1` [Example 0191], the “Physical data (logP)” value was 3.7. For the compound `COCC(C)NC(=O)/C=C/c1c(-c2cccc(Cl)c2)nc2sc(C(F)(F)F)nn12` (stereo not shown) [Example 0089], the “Physical data (logP)” value turned out to be 3.46. In the case of `O=C(O)/C=C/c1c(-c2sccc2Cl)nc2sc(C(F)(F)F)nn12` [VA126], the “Physical data (logP)” value was found to be 2.72. Take `O=C(/C=C/c1c(-c2ccc(Cl)cc2Cl)nc2sc(C(F)(F)F)nn12)NOCC1CC1` [Example 0563]: the “Physical data: log P” value came out at 3.68. Turning to `O=C(O)/C=C/c1c(-c2ccc(Cl)nc2)nc2sc(C(F)(F)F)nn12` [VA125], the “Physical data (logP)” value stood at 2.42. On the same count and under the same terms, the figure for `O=C(/C=C/c1c(-c2ccc(Cl)cc2)nc2sc(C(F)(F)F)nn12)N1CCOCC1` [Example 0072] is 3.27. For `CC(NC(=O)/C=C/c1c(-c2ccc(F)cc2Cl)nc2sc(C(F)(F)C(F)(F)F)nn12)C(F)(F)F` (racemic) [Example 0974], the “Physical data: logP” value came to 4.19. On the same count and under the same terms, the figure for `CC(C)(C)c1nn2c(/C=C/C(=O)NC3CC3)c(-c3ccccc3Cl)nc2s1` [Example 0807] is 3.07.

In the case of `CC(ONC(=O)/C=C/c1c(-c2ccc(Cl)cc2)nc2sc(C(F)(F)F)nn12)c1ccccc1` (stereo not shown) [Example 0062], the “Physical data (logP)” value is on record as 4.18.

Consider `Cc1cn2c(/C=C/C(=O)NCC(F)(F)F)c(-c3ccccc3Cl)nc2s1` [Example 0866], for which the “Physical data: logP” value came out at 2.64. `O=C(/C=C/c1c(-c2ccccc2F)nc2sc(C(F)(F)F)nn12)N1CCCCC1` [Example 0506]: the “Physical data: log P” value was found to be 3.59.

For the compound `Cc1ccccc1-c1nc2sc(C(F)(F)F)nn2c1/C=C/C(=O)NCC1CC1` [Example 0237], the “Physical data: log P” value is recorded as 3.37. Regarding `COCC(C)NC(=O)/C=C/c1c(-c2ccc(OC)c(OC)c2)nc2sc(C(F)(F)F)nn12` (stereo not shown) [Example 0663], the “Physical data: logP” value came out at 2.7. As to `O=C(O)/C=C/c1c(-c2ccc(-c3ccc(OC(F)(F)F)cc3)cc2)nc2sc(C(F)(F)F)nn12` [VA123], the “Physical data (logP)” value is recorded as 4.46. `Cc1ccccc1-c1nc2sc(C(F)(F)F)nn2c1/C=C/C(=O)NOCC1CC1` [Example 0282]: the “Physical data: log P” value worked out at 3.26.

Values taken from patent US20090118286A1, “Heterobicyclic Acrylamides” (Bayer Cropscience AG, priority 2005, published 2009).
